We go through 15 molecules from patent US20260226069A1, “GCN2 AND PERK KINASE MODULATORS AND METHODS OF USE THEREOF” (Deciphera Pharmaceuticals, LLC, priority 2023, published 2026).

Experiment [1] has as its system ASNase treated CCRF-CEM cells. Briefly: CCRF-CEM ASNase cell proliferation assay, phenotypic assay for cellular inhibition of GCN2. The following applies: Homo sapiens, 1 mU/mL ASNase, 72 h, resazurin. It counts as cell-based. As for the experimental part:
CCRF-CEM ASNase Cell Proliferation Assay, a Phenotypic Assay for Cellular Inhibition of GCN2.
CCRF-CEM leukemia cells (catalog #CCL-116) were obtained from the American Type Culture Collect (ATTC, Manassas, VA). Cells were grown in RPMI-1640 medium supplemented with 10% heat-inactivated fetal bovine serum (Invitrogen, Carlsbad, CA) and 1% Penicillin/Streptomycin/L-Glutamine at 37° C., 5% CO2, and 95% humidity. Cells were expanded until reaching one million cells per mL at which time they are subcultured or harvested for assay use. Ten thousand cells per well in 200 μL RPMI-1640 supplemented with 10% heat-inactivated fetal bovine serum and 1% Penicillin/Streptomycin were dispensed into a 96-well black clear bottom plate. A serial dilution of test compound and 1 mU/mL ASNase was added in triplicate and plates were incubated for 72 h at 37° C., 5% CO2, and 95% humidity. At the end of the incubation, 40 μL of a […] solution of resazurin (Sigma, St. Louis, MO) in PBS was added to each well of the plate and plates were incubated for an additional 6 h at 37° C., 5% CO2, and 95% humidity. Plates were read on a Synergy2 or equivalent reader (Biotek, Winooski VT) using an excitation of 540 nm and an emission of 600 nm. Data was analyzed using GraphPad Prism software (GraphPad, San Diego, CA) to calculate IC50 values.

Experiment [2] concerns ATF4 in Thapsigargin stimulated CCRF-CEM cells. Briefly: CCRF-CEM TG ATF4 ELISA, phenotypic assay for cellular inhibition of PERK preactivated by thapsigargin. It counts as cell-based. The following applies: Homo sapiens, 3 h, compound three hours then 1 μM thapsigargin for an additional hour. On the procedure: CCRF-CEM TG ATF4 ELISA, a Phenotypic Assay for Cellular Inhibition of PERK Preactivated by Thapsigargin (TG)
CCRF-CEM leukemia cells (catalog #CCL-116) were obtained from the American Type Culture Collection (ATTC, Manassas, VA). Briefly, cells were grown in RPMI-1640 medium supplemented with 10% heat-inactivated fetal bovine serum (Invitrogen, Carlsbad, CA) and 1% Penicillin/Streptomycin/L-Glutamine at 37° C., 5% CO2, and 95% humidity. Cells were expanded until reaching one million cells per mL at which time they were subcultured or harvested for assay use. One million five hundred thousand cells per well in 1 mL complete growth medium were dispensed into 12-well plates and incubated overnight. A serial dilution of test compound was added and cells were incubated at 37° C., 5% CO2, and 95% for three hours, then 1 μM thapsigargin was added and cells were incubated for an additional hour at 37° C., 5% CO2, and 95%. Cells were lysed then ATF4 levels were measured using an ELISA assay (Proteintech, Rosemont, IL). Absorbance was measured at 450 nm and 544 nM using a Synergy2 or equivalent reader (Biotek, Winooski VT). Data was analyzed using PRISM software (Graphpad, San Diego, CA) to calculate IC50 values.

For experiment [3], the target named is T1, GCN2 kinase (Homo sapiens, UniProt Q9P2K8).
T1 construct: G556E with a; purchased Carna Biosciences
As to the kind of experiment: Biochemical assay for GCN2 (TR-FRET kinase activity assay). To be noted: 2 nM GCN2, 1 mM ATP, 3-hour incubation. On the procedure: Biochemical assay for GCN2
Activity of GCN2 kinase was determined using a TR-FRET kinase activity assay (e.g., Analytical Biochemistry, 2006, 356, 108-116). Assays were conducted in 384-well plates (13 μL assay volume) using 2 nM GCN2 (Carna Biosciences), 130 nM GFP-EIf2α (Invitrogen), 0.2 mg/mL E. coli tRNA (sigma) and 1 mM ATP in kinase buffer (Invitrogen). Inhibition of GCN2 was measured by adding serial diluted test compound (final assay concentration of 0.5% DMSO) followed by a 3-hour incubation. Tb-peIF2α (pSer52) antibody (Invitrogen) (2 nM final assay concentration) in kinase buffer containing EDTA (final assay concentration of 20 mM) was added. After a 60 min incubation at room temperature, TR-FRET was monitored using an excitation wavelength of 340 nm and emission wavelengths of 490 nm and 520 nm. The emission ratio (520/490) at each compound concentration of was converted to percent inhibition using controls (i.e., reaction with no test compound and reaction with a known inhibitor) and IC50 values were calculated by fitting a four-parameter sigmoidal curve to the data using Prism (GraphPad software).

For experiment [4], the target named is T2, PERK kinase (Homo sapiens, UniProt Q9NZJ5, A704S).
T2 construct: GST (with thrombin site LVPRGS); purchased Beryllium
As to the kind of experiment: Biochemical assay for PERK (coupled pyruvate kinase/lactate dehydrogenase assay). To be noted: 10 nM PERK, 1 mM ATP, reaction rate 2-3 h time frame, 30° C. As for the experimental part:
Biochemical Assay for PERK
Activity of PERK kinase was determined spectroscopically using a coupled pyruvate kinase/lactate dehydrogenase assay that continuously monitors the ATP hydrolysis-dependent oxidation of NADH (Science, 2000, 289, 1938-1942). Assays were conducted in 384-well plates (100 μL final volume) using 10 nM PERK (from Beryllium), 0.25 mg/mL Myelin Basic Protein substrate, 1.5 units pyruvate kinase, 2.1 units lactate dehydrogenase, 1 mM phosphoenol pyruvate, 0.28 mM NADH and 1 mM ATP in assay buffer (100 mM Tris, pH 7.5, 15 mM MgCl2, 0.5 mM DTT, 0.004% (w/v) BSA, and 0.004% Triton X-100). Inhibition of PERK was measured by adding serial diluted test compound (final assay concentration of 1% DMSO). A decrease in absorption at 340 nm was monitored continuously for 6 hours at 30° C. on a multi-mode microplate reader (BioTek). The reaction rate was calculated using the 2-3 h time frame. The reaction rate at each concentration of compound was converted to percent inhibition using controls (i.e., reaction with no test compound and reaction with a known inhibitor) and IC50 values were calculated using software routines in Prism (GraphPad software).

For experiment [5], the system named is ATF4 in H929 Multiple Myeloma cells. Briefly: H929 ATF4 ELISA assay. The format is cell-based. The following applies: four hours, fold stimulation of cellular ATF4 relative to vehicle treated control. As for the experimental part:
H929 multiple myeloma cells (catalog #CRL-9068) were obtained from the American Type Culture Collection (ATTC, Manassas, VA). Briefly, cells were grown in RPMI-1640 medium supplemented with 20% heat-inactivated fetal bovine serum (catalog #A3840002, ThermoFisher Scientific, Waltham, MA), 1% Penicillin/Streptomycin/L-Glutamine (catalog #10378016, ThermoFisher Scientific, Waltham, MA), and 0.05 mM 2-mercaptoethanol (catalog #21985-023, ThermoFisher Scientific, Waltham, MA) at 37° C., 5% CO2, and 95% humidity. Cells were expanded until reaching one million five hundred thousand cells per mL at which time they were sub-cultured or harvested for assay use. One million five hundred thousand cells per well in 1 mL complete growth medium were dispensed into 12-well plates and incubated overnight. A serial dilution of test compound was added, and cells were incubated at 37° C., 5% CO2, and 95% for four hours. Cells were lysed then ATF4 levels were measured using an ELISA assay (Proteintech, Rosemont, IL). Absorbance is measured at 450 nm and 544 nM using a Synergy2 or equivalent reader (Biotek, Winooski VT). Data were analyzed using PRISM software (Graphpad, San Diego, CA) to calculate fold stimulation of cellular ATF4 relative to vehicle treated control.

The structures appear in SMILES notation. pIC50: −log10 of the molar value.

T2 sequence (Q9NZJ5 with tags, fused parts or gaps A704S): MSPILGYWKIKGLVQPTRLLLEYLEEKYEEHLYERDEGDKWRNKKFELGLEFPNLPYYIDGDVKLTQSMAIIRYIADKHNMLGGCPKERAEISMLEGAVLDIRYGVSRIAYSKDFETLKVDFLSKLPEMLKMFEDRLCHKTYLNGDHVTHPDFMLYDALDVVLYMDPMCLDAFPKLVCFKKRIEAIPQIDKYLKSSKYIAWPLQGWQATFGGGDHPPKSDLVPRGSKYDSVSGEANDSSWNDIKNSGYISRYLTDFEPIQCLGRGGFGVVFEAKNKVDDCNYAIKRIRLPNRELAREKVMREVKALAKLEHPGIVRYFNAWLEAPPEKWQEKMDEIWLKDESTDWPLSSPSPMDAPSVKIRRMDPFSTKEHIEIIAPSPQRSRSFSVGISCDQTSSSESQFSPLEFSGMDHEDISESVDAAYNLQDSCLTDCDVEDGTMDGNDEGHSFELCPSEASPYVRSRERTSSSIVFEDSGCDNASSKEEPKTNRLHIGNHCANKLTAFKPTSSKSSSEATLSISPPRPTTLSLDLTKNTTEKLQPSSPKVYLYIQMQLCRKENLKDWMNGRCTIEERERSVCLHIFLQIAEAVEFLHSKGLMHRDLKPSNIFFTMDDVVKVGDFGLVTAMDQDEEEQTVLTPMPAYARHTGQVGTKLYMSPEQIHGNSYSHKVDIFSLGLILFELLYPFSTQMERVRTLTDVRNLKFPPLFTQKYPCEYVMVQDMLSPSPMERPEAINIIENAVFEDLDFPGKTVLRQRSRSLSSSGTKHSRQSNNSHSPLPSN

Take `COc1ncc(Cl)cc1S(=O)(=O)Nc1cc(F)c(F)c(-c2cn(C)c3ncnc(N)c23)c1` [Example 43]: the pIC50 in experiment [1] is 5.00 to 6.00; in experiment [2], 5.00 to 6.00; in experiment [3], 5.00 to 6.00; in experiment [4], at least 7.00. In addition, the “H929 NS ATF4 ELISA” value in experiment [5] is “+ (an ATF4 stim less than or equal to 5-fold)”.
With `Cn1cc(-c2nc(-c3cccc(NS(=O)(=O)c4cc(Cl)cc(CO)c4Cl)c3F)c3c(N)nccn23)cn1` [Example 20], the negative-log IC50 (pIC50) in experiment [1], in experiment [2], in experiment [3] and in experiment [4] was at least 7.00 each time. Further, the “H929 NS ATF4 ELISA” value in experiment [5] is “++ (an ATF4 stim greater than 5-fold and less than or equal to 10-fold)”.
Regarding `CNC(=O)c1nc(-c2cccc(NS(=O)(=O)c3cc(Cl)cc(CO)c3Cl)c2F)c2c(N)nccn12` [Example 22], the pIC50 was 6.30 to 7.00 in experiment [1], 6.30 to 7.00 in experiment [2], at least 7.00 in experiment [3] and at least 7.00 in experiment [4]. In addition, the “H929 NS ATF4 ELISA” value in experiment [5] is listed as “++++ (an ATF4 stim greater than 20-fold)”.
In the case of `CC(C)c1nc(-c2cccc(NS(=O)(=O)c3cc(Cl)cc(CO)c3Cl)c2F)c2c(N)nccn12` [Example 16], the pIC50 in experiment [1] was at least 7.00; in experiment [2] it was 6.30 to 7.00; in experiment [3], at least 7.00; in experiment [4], at least 7.00. Further, in experiment [5], the “H929 NS ATF4 ELISA” value was “+++ (an ATF4 stim greater than 10-fold and less than or equal to 20-fold)”.
As to `Cn1cc(-c2cccc(NS(=O)(=O)c3cc(Cl)cc(/C=N\O)c3Cl)c2F)c2c(N)ncnc21` [Example 52, (Z)—N-(3-(4-amino-7-methyl-7H-pyrrolo[2,3-d]pyrimidin-5-yl)-2-fluorophenyl)-2,5-dichloro-3-((hydroxyimino)methyl)benzenesulfonamide], the pIC50 in experiment [1] was 5.00 to 6.00; in experiment [2], 6.30 to 7.00; in experiment [3], 6.00 to 6.30; in experiment [4], at least 7.00. In addition, in experiment [5], the “H929 NS ATF4 ELISA” value is listed as “++++ (an ATF4 stim greater than 20-fold)”.
For the molecule `Nc1nccn2c(-c3ccccc3)nc(-c3cccc(NS(=O)(=O)c4cc(Cl)cc(CO)c4Cl)c3F)c12` [Example 12], the pIC50 in experiment [1] was 6.30 to 7.00; in experiment [2], 6.00 to 6.30; in experiment [3], at least 7.00; in experiment [4], at least 7.00. Moreover, the “H929 NS ATF4 ELISA” value in experiment [5] was “++++ (an ATF4 stim greater than 20-fold)”.
Turning to `Cc1nc(-c2cccc(NS(=O)(=O)c3cc(Cl)cc(CO)c3Cl)c2F)c2c(N)nccn12` [Example 2, N-(3-(8-amino-3-methylimidazo[1,5-a]pyrazin-1-yl)-2-fluorophenyl)-2,5-dichloro-3-(hydroxymethyl)benzenesulfonamide], the pIC50 in experiment [1] was 6.30 to 7.00; in experiment [2], 6.30 to 7.00; in experiment [3] it was 6.30 to 7.00; in experiment [4] it was at least 7.00. Besides, the “H929 NS ATF4 ELISA” value in experiment [5] is “+++ (an ATF4 stim greater than 10-fold and less than or equal to 20-fold)”.
In the case of `Cc1nc(-c2cc(NS(=O)(=O)c3cc(Cl)cc(CO)c3Cl)cc(F)c2F)c2c(N)nccn12` [Example 4], the pIC50 is 5.00 to 6.00 in experiment [1], 5.00 to 6.00 in experiment [2], at least 7.00 in experiment [3] and at least 7.00 in experiment [4]. For the same molecule, in experiment [5], the “H929 NS ATF4 ELISA” value was “+ (an ATF4 stim less than or equal to 5-fold)”.
With `Nc1nccn2c(C3CC3)nc(-c3cccc(NS(=O)(=O)c4cc(Cl)cc(CO)c4Cl)c3F)c12` [Example 14], the pIC50 was at least 7.00 in experiment [1], 6.30 to 7.00 in experiment [2], at least 7.00 in experiment [3] and at least 7.00 in experiment [4]. For the same molecule, the “H929 NS ATF4 ELISA” value in experiment [5] is “++ (an ATF4 stim greater than 5-fold and less than or equal to 10-fold)”.
For the molecule `CSc1nc(-c2cccc(NS(=O)(=O)c3cc(Cl)cc(CO)c3Cl)c2F)c2c(N)nccn12` [Example 21], the pIC50 in experiment [1] is 6.30 to 7.00; in experiment [2], 6.30 to 7.00; in experiment [3], at least 7.00; in experiment [4], at least 7.00. In addition, the “H929 NS ATF4 ELISA” value in experiment [5] was “+++ (an ATF4 stim greater than 10-fold and less than or equal to 20-fold)”.
`Cc1nc(-c2cccc(NS(=O)(=O)c3cc(F)cc(CO)c3Cl)c2F)c2c(N)nccn12` [Example 8]: the negative logarithm of the IC50 (pIC50) in experiment [1] is 6.00 to 6.30; in experiment [2], 6.30 to 7.00; in experiment [3], 6.00 to 6.30; in experiment [4], at least 7.00.
Regarding `COc1c(CO)cc(Cl)cc1S(=O)(=O)Nc1cccc(-c2nc(C)n3ccnc(N)c23)c1F` [Example 11], the pIC50 in experiment [1] is 5.00 to 6.00; in experiment [2] it was 6.00 to 6.30; in experiment [3], 5.00 to 6.00; in experiment [4], 6.30 to 7.00.
Regarding `COc1ncc(Cl)cc1S(=O)(=O)Nc1cccc(-c2cn(C)c3ncnc(N)c23)c1F` [Example 45, N-(3-(4-amino-7-methyl-7H-pyrrolo[2,3-d]pyrimidin-5-yl)-2-fluorophenyl)-5-chloro-2-methoxypyridine-3-sulfonamide], the pIC50 is 5.00 to 6.00 in experiment [1], 6.30 to 7.00 in experiment [2], 5.00 to 6.00 in experiment [3] and at least 7.00 in experiment [4].
Consider `Cc1nc(-c2cccc(NS(=O)(=O)c3cc(F)cc(CO)c3F)c2F)c2c(N)nccn12` [Example 15], for which the pIC50 in experiment [1] was 5.00 to 6.00; in experiment [2], 5.00 to 6.00; in experiment [3], 5.00 to 6.00; in experiment [4] it was 6.30 to 7.00.
Regarding `Cn1cc(-c2cccc(NS(=O)(=O)c3ccc(Cl)c(CO)c3F)c2F)c2c(N)ncnc21` [Example 5], the negative logarithm of the IC50 (pIC50) in experiment [1] was 5.00 to 6.00; in experiment [2], 5.00 to 6.00; in experiment [3], 5.00 to 6.00; in experiment [4] it was 6.00 to 6.30.
